Measurements reported in patent publication US20120302740A1, “VINCRISTINE IMMUNOASSAY” (SALADAX BIOMEDICAL INC., priority 2010, published 2012).
Counter-ions that a name gives are not always drawn.

Columns and labels:
[1] = system: polyclonal antibodies to vincristine, bleed G1M1; assay: Indirect competitive microtiter plate immunoassay (ELISA), polyclonal antiserum bleed G1M1; assay type: binding, mouse; conditions: relative to vincristine, vincristine [5]-BSA coated plates
Description: (§1) The ELISA method for measuring vincristine concentrations was performed in polystyrene microtiter plates (Nunc MaxiSorp F8 Immunomodules) optimized for protein binding and containing 96 wells per plate. Each well was coated with vincristine [5]-BSA conjugate (prepared as in Example 5) by adding 300 μl, of vincristine [5]-BSA conjugate at 10 μg/mL in 0.05M sodium carbonate, pH 9.6, and incubating for three hours at room temperature. The wells were washed with 0.05M sodium carbonate, pH 9.6 and then were blocked with 375 μL of 5% sucrose, 0.2% sodium caseinate solution for 30 minutes at room temperature. After removal of the blocking solution the plates were dried at 37° C. overnight.
(§2) This procedure is to find the dilution of antibody or anti-serum to be tested for displacement as in Example 9. […] Following the incubation for color development, 50 μL of stop solution (1.5% sodium fluoride in diH2O) was added to each well to stop the color development and after 10 seconds of shaking the absorbance was determined at 650 nm (Molecular Devices Plate Reader). The amount of antibody in a well was proportional to the absorbance measured and was expressed as the dilution (titer) resulting in an absorbance of 1.5. Titers were determined by graphing antibody dilution of the antibody measured (x-axis) vs. absorbance 650 nm (y-axis) and interpolating the titer at an absorbance of 1.5. […]

[2] = system: polyclonal antibodies to vincristine, bleed G1M3; assay: Indirect competitive microtiter plate immunoassay (ELISA), polyclonal antiserum bleed G1M3; assay type: binding, mouse; conditions: relative to vincristine, vincristine [5]-BSA coated plates
Description: as §1, §2

[3] = system: polyclonal antibodies to vincristine, bleed G2M1; assay: Indirect competitive microtiter plate immunoassay (ELISA), polyclonal antiserum bleed G2M1; assay type: binding, mouse; conditions: relative to vincristine, vincristine [5]-BSA coated plates
Description: as §1, §2

[4] = system: polyclonal antibodies to vincristine, bleed G2M5; assay: Indirect competitive microtiter plate immunoassay (ELISA), polyclonal antiserum bleed G2M5; assay type: binding, mouse; conditions: relative to vincristine, vincristine [5]-BSA coated plates
Description: as §1, §2

[5] = system: polyclonal antibodies to vincristine, bleed G1M4; assay: Indirect competitive microtiter plate immunoassay (ELISA), polyclonal antiserum bleed G1M4; assay type: binding, mouse; conditions: relative to vincristine, vincristine [5]-BSA coated plates
Description: as §1, §2

[6] = system: monoclonal antibody to vincristine 1D12.10; assay: Indirect competitive microtiter plate immunoassay (ELISA), monoclonal antibody 1D12.10; assay type: binding, mouse; conditions: relative to vincristine, vincristine [5]-BSA coated plates
Description: as §1
(§3) This procedure is to find the dilution of antibody or anti-serum to be tested for displacement as in Example 9. The ELISA method for screening vincristine antibodies (produced in Example 6) was performed with the microtiter plates that were sensitized with vincristine-BSA conjugate prepared in Example 7. The antibody screening assay was performed by diluting the murine serum from test bleeds (as in Example 6a) containing polyclonal vincristine antibodies to 1:2,000, 1:6,000, 1:18,000 and 1:54,000 (volume/volume) in phosphate buffered saline containing 0.1% BSA and 0.01% thimerosal. […] (volume/volume) in phosphate buffered saline containing 0.1% BSA and 0.01% thimerosal. To each well of vincristine-BSA sensitized wells (prepared in Example 7)50 μL phosphate buffered saline containing 0.1% BSA and 0.01% thimerosal and 50 μL of diluted antibody were added and incubated for 10 minutes at room temperature with shaking. During this incubation antibody binds to the vincristine-BSA conjugate passively absorbed in the wells (Example 7). The wells of the plates were washed three times with 0.02 M TRIS, 0.9% NaCl, 0.5% Tween-80 and 0.001% thimerosal, pH 7.8 to remove any unbound antibody. […] Following the incubation for color development, 50 μL of stop solution (1.5% sodium fluoride in diH2O) was added to each well to stop the color development and after 10 seconds of shaking the absorbance was determined at 650 nm (Molecular Devices Plate Reader). The amount of antibody in a well was proportional to the absorbance measured and was expressed as the dilution (titer) resulting in an absorbance of 1.5. Titers were determined by graphing antibody dilution of the antibody measured (x-axis) vs. absorbance 650 nm (y-axis) and interpolating the titer at an absorbance of 1.5. The titer which produced absorbance of 1.5 determined the concentration (dilution) of antibody used in the indirect competitive microtiter plate assay described in Example 9. […]

[7] = system: monoclonal antibody to vincristine 8B6.23.23; assay: Indirect competitive microtiter plate immunoassay (ELISA), monoclonal antibody 8B6.23.23; assay type: binding, mouse; conditions: relative to vincristine, vincristine [5]-BSA coated plates
Description: as §1, §3

[8] = system: antibodies to vincristine; assay: Indirect competitive microtiter plate immunoassay (ELISA), pool of antibodies to vincristine; assay type: binding, mouse; conditions: for reactivity of the antibodies of this invention (in words): summary of Tables I and II
Description: as §1
This procedure is to find the dilution of antibody or anti-serum to be tested for displacement as in Example 9. The ELISA method for screening vincristine antibodies (produced in Example 6) was performed with the microtiter plates that were sensitized with vincristine-BSA conjugate prepared in Example 7. The antibody screening assay was performed by diluting the murine serum from test bleeds (as in Example 6a) containing polyclonal vincristine antibodies to 1:2,000, 1:6,000, 1:18,000 and 1:54,000 (volume/volume) in phosphate buffered saline containing 0.1% BSA and 0.01% thimerosal. […] (volume/volume) in phosphate buffered saline containing 0.1% BSA and 0.01% thimerosal. To each well of vincristine-BSA sensitized wells (prepared in Example 7)50 μL phosphate buffered saline containing 0.1% BSA and 0.01% thimerosal and 50 μL of diluted antibody were added and incubated for 10 minutes at room temperature with shaking. During this incubation antibody binds to the vincristine-BSA conjugate passively absorbed in the wells (Example 7). The wells of the plates were washed three times with 0.02 M TRIS, 0.9% NaCl, 0.5% Tween-80 and 0.001% thimerosal, pH 7.8 to remove any unbound antibody. […] After an incubation of 10 minutes at room temperature with shaking, during which the goat anti-mouse antibody-HRP enzyme conjugate binds to vincristine antibodies in the wells, the plates were again washed three times to remove unbound goat anti-mouse antibody-HRP enzyme conjugate. To develop a measurable color in the wells washing was followed by the addition of 100 μL of TMB (TMB Substrate, BioFx), the substrate for HRP, to develop color during a 10 minute incubation with shaking at room temperature. Following the incubation for color development, 50 μL of stop solution (1.5% sodium fluoride in diH2O) was added to each well to stop the color development and after 10 seconds of shaking the absorbance was determined at 650 nm (Molecular Devices Plate Reader). The amount of antibody in a well was proportional to the absorbance measured and was expressed as the dilution (titer) resulting in an absorbance of 1.5. Titers were determined by graphing antibody dilution of the antibody measured (x-axis) vs. absorbance 650 nm (y-axis) and interpolating the titer at an absorbance of 1.5. The titer which produced absorbance of 1.5 determined the concentration (dilution) of antibody used in the indirect competitive microtiter plate assay described in Example 9.
Indirect Competitive Microtiter Plate Immunoassay Procedure Determining IC50 and Cross-Reactivity for Antibodies to Vincristine
The ELISA method for determining IC50 values and cross-reactivity was performed with the microtiter plates that were sensitized with vincristine [5]-BSA conjugates as described in Example 7. […]

[9] = cited from earlier work
[10] = single one minute intravenous injection of 1-2 mg per m^2 body surface area

Row | Molecule | Cross-reactivity of competitive immunoassay [1] [%] | Cross-reactivity of competitive immunoassay [2] [%] | Cross-reactivity of competitive immunoassay [3] [%] | Cross-reactivity of competitive immunoassay [4] [%] | Cross-reactivity of competitive immunoassay [5] [%] | Cross-reactivity of competitive immunoassay [6] [%] | Cross-reactivity of competitive immunoassay [7] [%] | percent cross-reactivities relative to vincristine ([8]; measured with this pool of antibodies) | reactivity of the antibodies of this invention (in words) [8] | elimination half-life [9, 10] [h] | time to distribution into tissue [9, 10] [min] | difference in total dose exposure (inter-/intra-patient variability) ([9]; Crom et al., 1994) | interpatient variability in clearance ([9]; Gidding et al., 1999, Groninger et al., 2002)
1 | CC[C@]1(O)C[C@@H]2CN(CCc3c([nH]c4ccccc34)[C@@](C(=O)OC)(c3cc4c(cc3OC)N(C)[C@H]3[C@@](O)(C(=O)OC)[C@H](OC(C)=O)[C@]5(CC)C=CCN6CC[C@]43[C@@H]65)C2)C1 [Vinblastine, vinblastine] | <0.9 | <3.9 | <3.4 | <2 | <4.1 | <0.1 | 0.3 | less than 5% | substantially non-cross-reactive | – | – | – | –
2 | CC[C@]1(O)C[C@H]2CN(CCc3c([nH]c4ccccc34)[C@@](C(=O)OC)(c3cc4c(cc3OC)N(C=O)[C@H]3[C@@](O)(C(=O)OC)[C@H](OC(C)=O)[C@]5(CC)C=CCN6CC[C@]43[C@@H]65)C2)C1 [Vincristine sulfate] | – | – | – | – | – | – | – | – | – | 19 to 155 | ≤ 10 | – | –
3 | [H][C@@]12C[N@@](CCc3c([nH]c4ccccc34)[C@@](C(=O)OC)(c3cc4c(cc3OC)N(C=O)[C@]3([H])[C@]45CC[N@@]4CC=C[C@@](CC)([C@@H](OC(C)=O)[C@]3(O)C(=O)OC)[C@]45[H])C1)C[C@](O)(CC)C2 [Vincristine, vincristine] | 100 | 100 | 100 | 100 | 100 | 100 | 100 | – | substantially selectively reactive | – | – | up to 40 fold | up to 25 fold
4 | CCC1=C[C@@H]2CN(C1)Cc1c([nH]c3ccccc13)[C@@](C(=O)OC)(c1cc3c(cc1OC)N(C)[C@H]1[C@@](O)(C(=O)OC)[C@H](OC(C)=O)[C@]4(CC)C=CCN5CC[C@]31[C@@H]54)C2 [Vinorelbine, vinorelbine] | – | – | – | – | – | <0.1 | 0.7 | – | substantially non-cross-reactive | – | – | – | –
5 | vindesine | – | – | – | – | – | <0.1 | <0.1 | – | substantially non-cross-reactive | – | – | – | –
